Laboratory results from patent US11718628B2, “SREBP inhibitors comprising a 6-membered central ring” (Capulus Therapeutics, LLC, priority 2018, dated 2023).
Like-named read-outs stand apart in the source and are kept apart here.

How the values were obtained:
[1] = system: liver gene expression (ACACA, ACLY, FASN, LSS, PNPLA3); assay: Liver gene expression in mice after oral administration; assay type: in vivo; details: 30 mpk, vs vehicle
Procedure: (§1) The pharmacodynamic properties of selected compounds were evaluated in mice. The animals were housed in cages with clean bedding, and maintained and monitored for good health in accordance with Test Facility SOPs and at the discretion of the laboratory animal veterinarian. Certified rodent diet was provided. Food and water was available ad libitum. Environmental controls for the animal room were set to maintain a temperature of 22° C. to 25° C., humidity of 40-70% RH, and a 12-hour light/[…]. Normal healthy animals certified by the attending veterinarian were selected and acclimatized for minimum three days prior to initiation of study. Animals were identified with body markings.
(§2) Aliquots of the compounds being evaluated were weighed and triturated with 0.5% methylcellulose (with the addition of 5% N-methyl pyrrolidone when required to remove clumping, as for Z-806) to an appropriate dose concentration. Vials were labeled with the information about study number, test item, concentration and date of preparation. A description of appearance of formulation was recorded (e.g., color, turbidity, etc.). The composition of formulation vehicle was recorded. An aliquot of each dose solution was taken before the dosing began and after dosing was finished, and stored at approximately −20° C. or below for subsequent analysis. The animals were dosed orally through oral gavage needle, and time of dosing was recorded.
(§3) Liver Collection at 6 h or 24 h: Immediately after blood withdrawal for pharmacokinetic evaluation (at 6 or at 24 h), liver tissue was collected without perfusion. Animals were euthanized using carbon dioxide gas in a CO2 chamber. The whole blood was drained by cutting the both side jugular vein and abdominal aorta. The liver was separated out. All the liver samples were divided in two parts. The first part (200 mg approx.) was snap frozen using liquid nitrogen as soon as possible. These samples were immediately transferred to −80° C. for storage. The remaining part was weighed and used for bioanalysis.
RNA Processing and Gene Expression Analysis: Liver Tissue RNA was harvested with the RNEasy kit and 20-100 ng used to synthesize cDNA with random primers following the manufacturer's protocol. Quantitative PCR was performed on 1 pg to 100 ng cDNA for the following genes: ACACA, ACLY, FASN, LSS, PNPLA3. Gene expression levels were determined using ΔΔCT method comparing treated to vehicle treated samples as a baseline, and fold change calculated. The average value for all 5 genes above was averaged and termed to Total Fold Change The results from this evaluation are presented in Table 8.

[2] = Log D by octanol/aqueous buffer partitioning; assay type: physicochemical; details: pH 7.4, 1-octanol/buffer
Procedure: The Log D of selected compounds was evaluated by octanol/aqueous buffer partitioning. 500 μL of organic phase (1-octanol) was added to each well of a 2 mL deep well plate, followed by 500 μL of buffer and 15 μL of test compound in DMSO (0.15 mM). The plate was vortexed for 10 seconds and incubated at room temperature for 1 hr on a plate shaker at 200 rpm. After incubation, the samples were allowed to equilibrate for 20 min and then centrifuged at 4000 rpm for 30 min for complete phase separation. The distribution of test compound in buffer and octanol phase was analyzed by HPLC-UV. Log D=Log (Area of Octanol/Area of Buffer).

[3] = In vivo pharmacokinetic properties in rats (IV and PO); parameters: species or system male Sprague Dawley rats; details: for % F (Bioavailability of oral delivery) / bioavailability: PO 10 mg/kg vs IV 2 mg/kg; for AUC(0-t) / clearance / half-life / Vd / bioavailability / Tmax: male, Sprague Dawley, rat, plasma; for clearance: read-out: Intravenous Delivery (IV) CL; for Vd: read-out: Intravenous Delivery (IV) Vd; for bioavailability: read-out: % F (Bioavailability of oral delivery); for Tmax: read-out: Oral Administration (PO) Tmax
Procedure: (§4) The in vivo pharmacokinetic properties of compounds by both intravenous and oral administration were evaluated in male Sprague Dawley rats or C57BL/6J mice.
(§5) Animals were housed in cages with clean bedding. Certified rodent diet was provided. Water was available ad libitum. Environmental controls for the animal room were set to maintain a temperature of 22° C. to 25° C., humidity of 40-70% RH, and a 12-hour light/12-hour dark cycle. Normal healthy animals certified by the attending veterinarian were selected and acclimatized for minimum three days prior to initiation of study.
Surgical Procedure for Jugular Vein Cannulation of Rats: Rats were anaesthetized with a single dose of ketamine 50 mg/kg i.p.+xylazine 6 mg/kg i.p. The right jugular vein was exposed, a loose ligature was placed caudally, and the cranial end of vein was ligated. A small incision was made between the ligatures into which the catheter (polyethylene 50 tubing of internal diameter 0.58 mm and outer diameter 0.96 mm) was inserted. The catheter was secured in place by tying the loose ligature around the catheterized vessel. A small incision was made in the scapular region to serve as the exit site of the catheter. The catheter was subcutaneously tunneled and exteriorized through scapular incision. A stay suture was placed in the scapular area. Patency was tested, and catheter was filled with a locking solution (heparinized saline) and sealed with a stainless steel plug. The incision was then sutured with sterile suturing material. Anti-septic solution was applied to the sutured site and animal was placed back in the home cage.
(§6) To evaluate pharmacokinetic properties of intravenous delivery, male Sprague Dawley rats were administered 2.00 mg compound/kg animal weight through the tail vein. The concentration of the compound in the plasma of the animals was evaluated at 0.083, 0.25, 0.5, 1, 2, 4, 8, 12 and 24 hr by taking blood samples from the cannulated jugular vein. For the C5Bl/6J mice, blood samples were collected through a capillary, guided in retro-orbital plexus.
To evaluate pharmacokinetic properties of oral delivery, rats (male Sprague Dawley rats) or mice (C5Bl/6J) were administered 10 mg compound/kg animal weight by mouth. The concentration of compound in the plasma of the animals was evaluated at 0.25, 0.5, 1, 2, 4, 6, 8, 12 and 24 hr by taking blood samples from the cannulated jugular vein (rats) or through a capillary, guided in retro-orbital plexus (mice).

[4] = Plasma and liver compound levels in mice after oral administration; assay type: in vivo; details: 30 mpk; for concentration at 6 h / concentration at 24 h: mouse, 30 mg/kg
Procedure: as §1, §2
After dosing, the mice were anesthetized using gaseous anesthesia. Blood samples were collected through a capillary, guided in retro-orbital plexus, at 6 h or at 24 h. Approximately 100 uL of blood was collected from each mouse, in pre-labeled tubes. The collected blood was stored on ice prior to centrifugation. Blood samples were then centrifuged within 1 hour of collection to separate plasma. Centrifugation was conducted at 2500×g for 15 minutes at 4° C. The plasma was separated and transferred to pre-labeled micro-centrifuge tubes and promptly frozen at −80±10° C. until bioanalysis.
as §3

[5] = In vivo pharmacokinetic properties in mice (IV and PO); parameters: species or system C57BL/6J mice; details: mouse, in vivo; for Intravenous Delivery (IV) AUC0-last / Intravenous Delivery (IV) CL / Intravenous Delivery (IV) T1/2 / Intravenous Delivery (IV) Vd: 2 mg/kg; for Oral Administration (PO) AUC0-last / Oral Administration (PO) T1/2 / Oral Administration (PO) Tmax: 10 mg/kg
Procedure: as §4, §5, §6
[…] The concentration of compound in the plasma of the animals was evaluated at 0.25, 0.5, 1, 2, 4, 6, 8, 12 and 24 hr by taking blood samples from the cannulated jugular vein (rats) or through a capillary, guided in retro-orbital plexus (mice).

[6] = 1-octanol/aqueous buffer, read-out: LogD
[7] = 10 mg/kg, heading: Oral Administration AUC0-last, PO, 10 mg/kg
[8] = IV, 2 mg/kg, read-out: Intravenous Delivery (IV) AUC0-last
[9] = IV, 2 mg/kg, read-out: Intravenous Delivery (IV) T1/2 (converted)
[10] = PO, 10 mg/kg, read-out: Oral Administration (PO) T1/2 (converted)

## CC(C)(C)c1cc(-c2cccc(-c3ccc(C(=O)N4CCC(O)CC4)cc3Cl)c2)ccn1 [Compound Z-744]
[1]
  Total Gene FC Time (6 h): ++ (0.51-0.7509 = ++)
  Total Gene FC Time (24 h): + (>0.751 = +)
[2]
  LogD: 4.12
[3]; IV, 2 mg/kg
  Intravenous Delivery (IV) CL: 13.1 mL/min/kg
  Intravenous Delivery (IV) T1/2: 1.91 h
  Intravenous Delivery (IV) Vd: 2.16 L/kg
[3]
  % F (Bioavailability of oral delivery): 8.6%
[3]; PO, 10 mg/kg
  Oral Administration (PO) AUC0-last: 1058
  Oral Administration (PO) T1/2: 2.35 h
  Oral Administration (PO) Tmax: 2 h
[4]
  Liver ng/mg (6 h): >1000 ng/mg
  Plasma ng/mL (6 h): 100 to 1000 ng/mL
  Liver ng/mg 24 h: >1000 ng/mg
  Plasma ng/mL (24 h): 100 to 1000 ng/mL

## CC(C)OC(=O)Nc1ccc(-c2cncc(-c3ccnc(C(C)(C)C)c3)c2)c(Cl)c1 [Compound Z-774]
[5]
  % F (Bioavailability of oral delivery): 16%
  Intravenous Delivery (IV) AUC0-last: 1780 ng·h/mL
  Intravenous Delivery (IV) CL: 18.5 mL/min/kg
  Intravenous Delivery (IV) T1/2: 5.31 h
  Intravenous Delivery (IV) Vd: 8.51 L/kg
  Oral Administration (PO) AUC0-last: 1380 ng·h/mL
  Oral Administration (PO) T1/2: 6.79 h
  Oral Administration (PO) Tmax: 0.5 h
[1]
  Total Gene FC Time (6 h): ++ (0.51-0.7509 = ++)
  Total Gene FC Time (24 h): +++ (0-0.509 = +++)
[2]
  LogD: 4.12
[3]; IV, 2 mg/kg
  Intravenous Delivery (IV) CL: 15.7 mL/min/kg
  Intravenous Delivery (IV) T1/2: 5.92 h
  Intravenous Delivery (IV) Vd: 7.97 L/kg
[3]
  % F (Bioavailability of oral delivery): 5.8%
[3]; PO, 10 mg/kg
  Oral Administration (PO) AUC0-last: 604
  Oral Administration (PO) T1/2: 3.74 h
  Oral Administration (PO) Tmax: 0.333 h
[4]
  Liver ng/mg (6 h): >1000 ng/mg
  Plasma ng/mL (6 h): 100 to 1000 ng/mL
  Liver ng/mg 24 h: >1000 ng/mg
  Plasma ng/mL (24 h): 100 to 1000 ng/mL

## CC1(O)CCN(C(=O)c2ccc(-c3cncc(-c4ccnc(C(C)(C)C)c4)c3)c(Cl)c2)CC1 [Compound Z-780]
[5]
  % F (Bioavailability of oral delivery): 33%
  Intravenous Delivery (IV) AUC0-last: 913 ng·h/mL
  Intravenous Delivery (IV) CL: 36.3 mL/min/kg
  Intravenous Delivery (IV) T1/2: 2.02 h
  Intravenous Delivery (IV) Vd: 6.33 L/kg
  Oral Administration (PO) AUC0-last: 1510 ng·h/mL
  Oral Administration (PO) T1/2: 1.24 h
  Oral Administration (PO) Tmax: 0.25 h
[1]
  Total Gene FC Time (6 h): + (>0.751 = +)
  Total Gene FC Time (24 h): ++ (0.51-0.7509 = ++)
[2]
  LogD: 3.76
[3]; IV, 2 mg/kg
  Intravenous Delivery (IV) CL: 16.7 mL/min/kg
  Intravenous Delivery (IV) T1/2: 1.14 h
  Intravenous Delivery (IV) Vd: 1.64 L/kg
[3]
  % F (Bioavailability of oral delivery): 29%
[3]; PO, 10 mg/kg
  Oral Administration (PO) AUC0-last: 2989
  Oral Administration (PO) T1/2: 0.92 h
  Oral Administration (PO) Tmax: 0.75 h
[4]
  Liver ng/mg (6 h): >1000 ng/mg
  Plasma ng/mL (6 h): 100 to 1000 ng/mL
  Liver ng/mg 24 h: >100 ng/mg
  Plasma ng/mL (24 h): <100 ng/mL

## CC(C)(O)c1cc(-c2cncc(-c3ccc(C(=O)N4CCC(O)CC4)cc3Cl)c2)ccn1 [Compound Z-796, (3-chloro-4-(2′-(2-hydroxypropan-2-yl)-[3,4′-bipyridin]-5-yl)phenyl)(4-hydroxypiperidin-1-yl)methanone]
[1]
  Total Gene FC Time (6 h): + (>0.751 = +)
  Total Gene FC Time (24 h): + (>0.751 = +)
[2]; [6]
  LogD: 2.08
[3]; [7]
  AUC(0-t): 7140 ng·h/mL
[3]; [8]
  AUC(0-t): 3800 ng·h/mL
[3]; IV, 2 mg/kg
  clearance: 8.78 mL/min/kg
  Vd: 2.37 L/kg
[3]; [9]
  half-life: 3.08 h
[3]
  bioavailability: 38%
[3]; [10]
  half-life: 3.22 h
[3]; PO, 10 mg/kg
  Tmax: 0.667 h
[4]; liver, read-out: Liver ng/mg (6 h)
  concentration at 6 h: > 1e+06 ng/g
[4]; liver, read-out: Liver ng/mg 24 h
  concentration at 24 h: < 100000 ng/g
[4]; plasma, read-out: Plasma ng/mL (6 h)
  concentration at 6 h: 100 to 1000 ng/mL
[4]; plasma, read-out: Plasma ng/mL (24 h)
  concentration at 24 h: < 100 ng/mL

## CC(C)(C)c1cc(-c2cncc(-c3ccc(NS(C)(=O)=O)cc3Cl)c2)ccn1 [Compound Z-803, N-(4-(2′-(tert-butyl)-[3,4′-bipyridin]-5-yl)-3-chlorophenyl)methanesulfonamide]
[2]; [6]
  LogD: 3.84
[3]; [7]
  AUC(0-t): 2580 ng·h/mL
[3]; [8]
  AUC(0-t): 6160 ng·h/mL
[3]; IV, 2 mg/kg
  clearance: 5.2 mL/min/kg
  Vd: 2.18 L/kg
[3]; [9]
  half-life: 4.86 h
[3]
  bioavailability: 8.3%
[3]; [10]
  half-life: 4.37 h
[3]; PO, 10 mg/kg
  Tmax: 3.33 h

## Cc1cc(C(=O)N2CCC(O)CC2)ccc1-c1cncc(-c2ccnc(C(C)(C)C)c2)c1 [Compound Z-817]
[1]
  Total Gene FC Time (6 h): + (>0.751 = +)
  Total Gene FC Time (24 h): + (>0.751 = +)
[2]
  LogD: 3.36
[3]; IV, 2 mg/kg
  Intravenous Delivery (IV) CL: 5.24 mL/min/kg
  Intravenous Delivery (IV) T1/2: 3.11 h
  Intravenous Delivery (IV) Vd: 1.41 L/kg
[3]
  % F (Bioavailability of oral delivery): 13%
[3]; PO, 10 mg/kg
  Oral Administration (PO) AUC0-last: 3992
  Oral Administration (PO) T1/2: 2.56 h
  Oral Administration (PO) Tmax: 0.33 h
[4]
  Liver ng/mg (6 h): 100 to 1000 ng/mg
  Plasma ng/mL (6 h): <100 ng/mL
  Liver ng/mg 24 h: <100 ng/mg
  Plasma ng/mL (24 h): <100 ng/mL
